Measured values from ChEMBL document CHEMBL5724914, “Linking interpersonal differences in gut microbiota composition and drug biotransformation activity” (2024).

What was measured:
[1] = human gut metagenome, 24 h, 2 µM
[2] = human gut metagenome, 24 h, 2 µM; remark: listed apart in the source
[3] = The drug is tested on Z-024 corresponding to pig gut metagenome with ENA study accession number: PRJEB37062 and ENA sample accession number: ERS12561823 for biotransformation under anaerobic condition. The drug concentrations were measured over 9 timepoints collected between 0 and 24 hours of incubation by liquid-chromatography-coupled mass spectrometry (LC–MS); details: 2 µM
[4] = human gut metagenome, 24 h, 2 µM; remark: listed apart in the source
[5] = The drug is tested on WLS-077 corresponding to human gut metagenome with ENA study accession number: PRJEB37062 and ENA sample accession number: ERS12561750 for biotransformation under anaerobic condition. The drug concentrations were measured over 9 timepoints collected between 0 and 24 hours of incubation by liquid-chromatography-coupled mass spectrometry (LC–MS); details: 2 µM
[6] = human gut metagenome, 24 h, 2 µM; remark: listed apart in the source
[7] = The drug is tested on Z-025 corresponding to rabbit gut metagenome with ENA study accession number: PRJEB37062 and ENA sample accession number: ERS12561824 for biotransformation under anaerobic condition. The drug concentrations were measured over 9 timepoints collected between 0 and 24 hours of incubation by liquid-chromatography-coupled mass spectrometry (LC–MS); details: 2 µM
[8] = The drug is tested on Z-009 corresponding to pig gut metagenome with ENA study accession number: PRJEB37062 and ENA sample accession number: ERS12561809 for biotransformation under anaerobic condition. The drug concentrations were measured over 9 timepoints collected between 0 and 24 hours of incubation by liquid-chromatography-coupled mass spectrometry (LC–MS); details: 2 µM
[9] = The drug is tested on Z-007 corresponding to rat gut metagenome with ENA study accession number: PRJEB37062 and ENA sample accession number: ERS12561807 for biotransformation under anaerobic condition. The drug concentrations were measured over 9 timepoints collected between 0 and 24 hours of incubation by liquid-chromatography-coupled mass spectrometry (LC–MS); details: 2 µM
Also: call rule not given here.

For `CCOC(=O)[C@H](CCc1ccccc1)N[C@@H](C)C(=O)N1[C@H](C(=O)O)C[C@@H]2CCC[C@@H]21`, the “Bacterial Biotransformation” value [1] was “Compound metabolized”, the “Bacterial Biotransformation” value [2] was “Compound metabolized” and the “Bacterial Biotransformation” value [3] was “Compound metabolized”. For the same compound, the “Bacterial Biotransformation” value [4] was “Compound metabolized”, the “Bacterial Biotransformation” value [5] was “Compound metabolized” and the “Bacterial Biotransformation” value [6] was “Compound metabolized”. The “Bacterial Biotransformation” value [7] was “Compound NOT metabolized”, the “Bacterial Biotransformation” value [8] was “Compound metabolized” and the “Bacterial Biotransformation” value [9] was “Compound metabolized”.
In the case of `CCN(CC)CCNC(C(=O)OCCC(C)C)c1ccccc1.Cl.Cl` (centres undefined), the “Bacterial Biotransformation” value [1] is reported as “Compound metabolized”, the “Bacterial Biotransformation” value [2] is reported as “Compound metabolized” and the “Bacterial Biotransformation” value [3] is reported as “Compound metabolized”. For the same compound, the “Bacterial Biotransformation” value [4] was “Compound metabolized”, the “Bacterial Biotransformation” value [5] was “Compound metabolized” and the “Bacterial Biotransformation” value [6] was “Compound NOT metabolized”. For the same compound, the “Bacterial Biotransformation” value [7] was “Compound NOT metabolized”, the “Bacterial Biotransformation” value [8] was “Compound metabolized” and the “Bacterial Biotransformation” value [9] was “Compound NOT metabolized”.
For `CCCC(=O)Nc1ccc(OCC(O)CNC(C)C)c(C(C)=O)c1` (centres undefined) [ACEBUTOLOL], the “Bacterial Biotransformation” value [1] was “Compound metabolized”, the “Bacterial Biotransformation” value [2] was “Compound NOT metabolized” and the “Bacterial Biotransformation” value [3] was “Compound NOT metabolized”. The “Bacterial Biotransformation” value [4] was “Compound metabolized”, the “Bacterial Biotransformation” value [5] was “Compound NOT metabolized” and the “Bacterial Biotransformation” value [6] was “Compound metabolized”. For the same compound, the “Bacterial Biotransformation” value [7] was “Compound NOT metabolized”, the “Bacterial Biotransformation” value [8] was “Compound NOT metabolized” and the “Bacterial Biotransformation” value [9] was “Compound NOT metabolized”.
In the case of `C=CCc1ccccc1OCC(O)CNC(C)C` (centres undefined) [ALPRENOLOL], the “Bacterial Biotransformation” value [1] is reported as “Compound NOT metabolized”, the “Bacterial Biotransformation” value [2] is reported as “Compound NOT metabolized” and the “Bacterial Biotransformation” value [3] is reported as “Compound metabolized”. For the same compound, the “Bacterial Biotransformation” value [4] was “Compound metabolized”, the “Bacterial Biotransformation” value [5] was “Compound NOT metabolized” and the “Bacterial Biotransformation” value [6] was “Compound NOT metabolized”. The “Bacterial Biotransformation” value [7] was “Compound metabolized”, the “Bacterial Biotransformation” value [8] was “Compound NOT metabolized” and the “Bacterial Biotransformation” value [9] was “Compound NOT metabolized”.
In the case of `CC(C)c1c(C(=O)Nc2ccccc2)c(-c2ccccc2)c(-c2ccc(F)cc2)n1CC[C@@H](O)C[C@@H](O)CC(=O)O` [ATORVASTATIN], the “Bacterial Biotransformation” value [1] is reported as “Compound metabolized”, the “Bacterial Biotransformation” value [2] is reported as “Compound metabolized” and the “Bacterial Biotransformation” value [3] is reported as “Compound NOT metabolized”. The “Bacterial Biotransformation” value [4] was “Compound metabolized”, the “Bacterial Biotransformation” value [5] was “Compound metabolized” and the “Bacterial Biotransformation” value [6] was “Compound NOT metabolized”. The “Bacterial Biotransformation” value [7] was “Compound NOT metabolized”, the “Bacterial Biotransformation” value [8] was “Compound NOT metabolized” and the “Bacterial Biotransformation” value [9] was “Compound NOT metabolized”.
With `CCOC(=O)[C@H](CCc1ccccc1)N[C@H]1CCc2ccccc2N(CC(=O)O)C1=O` [BENAZEPRIL] the “Bacterial Biotransformation” value [1] was “Compound metabolized”, the “Bacterial Biotransformation” value [2] was “Compound metabolized” and the “Bacterial Biotransformation” value [3] was “Compound metabolized”. The “Bacterial Biotransformation” value [4] was “Compound metabolized”, the “Bacterial Biotransformation” value [5] was “Compound metabolized” and the “Bacterial Biotransformation” value [6] was “Compound metabolized”. The “Bacterial Biotransformation” value [7] was “Compound NOT metabolized”, the “Bacterial Biotransformation” value [8] was “Compound metabolized” and the “Bacterial Biotransformation” value [9] was “Compound metabolized”.
In the case of `NS(=O)(=O)c1cc2c(cc1Cl)N=C(CSCc1ccccc1)NS2(=O)=O` [BENZTHIAZIDE], the “Bacterial Biotransformation” value [1] is reported as “Compound NOT metabolized”, the “Bacterial Biotransformation” value [2] is reported as “Compound NOT metabolized” and the “Bacterial Biotransformation” value [3] is reported as “Compound metabolized”. The “Bacterial Biotransformation” value [4] was “Compound NOT metabolized”, the “Bacterial Biotransformation” value [5] was “Compound NOT metabolized” and the “Bacterial Biotransformation” value [6] was “Compound NOT metabolized”. For the same compound, the “Bacterial Biotransformation” value [7] was “Compound metabolized”, the “Bacterial Biotransformation” value [8] was “Compound NOT metabolized” and the “Bacterial Biotransformation” value [9] was “Compound NOT metabolized”.
For `CC(C)NCC(O)COc1ccc(COCCOC(C)C)cc1.CC(C)NCC(O)COc1ccc(COCCOC(C)C)cc1.O=C(O)/C=C/C(=O)O` (centres undefined) [BISOPROLOL FUMARATE], the “Bacterial Biotransformation” value [1] was “Compound metabolized”, the “Bacterial Biotransformation” value [2] was “Compound NOT metabolized” and the “Bacterial Biotransformation” value [3] was “Compound metabolized”. For the same compound, the “Bacterial Biotransformation” value [4] was “Compound NOT metabolized”, the “Bacterial Biotransformation” value [5] was “Compound NOT metabolized” and the “Bacterial Biotransformation” value [6] was “Compound NOT metabolized”. For the same compound, the “Bacterial Biotransformation” value [7] was “Compound metabolized”, the “Bacterial Biotransformation” value [8] was “Compound metabolized” and the “Bacterial Biotransformation” value [9] was “Compound NOT metabolized”.
In the case of `CCCCCOC(=O)Nc1nc(=O)n([C@@H]2O[C@H](C)[C@@H](O)[C@H]2O)cc1F` [CAPECITABINE], the “Bacterial Biotransformation” value [1] is reported as “Compound metabolized”, the “Bacterial Biotransformation” value [2] is reported as “Compound metabolized” and the “Bacterial Biotransformation” value [3] is reported as “Compound metabolized”. For the same compound, the “Bacterial Biotransformation” value [4] was “Compound metabolized”, the “Bacterial Biotransformation” value [5] was “Compound metabolized” and the “Bacterial Biotransformation” value [6] was “Compound metabolized”. For the same compound, the “Bacterial Biotransformation” value [7] was “Compound metabolized”, the “Bacterial Biotransformation” value [8] was “Compound metabolized” and the “Bacterial Biotransformation” value [9] was “Compound NOT metabolized”.
For `Cc1ccc(-c2cc(C(F)(F)F)nn2-c2ccc(S(N)(=O)=O)cc2)cc1` [CELECOXIB], the “Bacterial Biotransformation” value [1] was “Compound metabolized”, the “Bacterial Biotransformation” value [2] was “Compound NOT metabolized” and the “Bacterial Biotransformation” value [3] was “Compound NOT metabolized”. The “Bacterial Biotransformation” value [4] was “Compound NOT metabolized”, the “Bacterial Biotransformation” value [5] was “Compound metabolized” and the “Bacterial Biotransformation” value [6] was “Compound metabolized”. For the same compound, the “Bacterial Biotransformation” value [7] was “Compound NOT metabolized”, the “Bacterial Biotransformation” value [8] was “Compound NOT metabolized” and the “Bacterial Biotransformation” value [9] was “Compound NOT metabolized”.
For `CN1C(=O)CCS(=O)(=O)C1c1ccc(Cl)cc1` (centres undefined) [CHLORMEZANONE], the “Bacterial Biotransformation” value [1] was “Compound NOT metabolized”, the “Bacterial Biotransformation” value [2] was “Compound NOT metabolized” and the “Bacterial Biotransformation” value [3] was “Compound NOT metabolized”. For the same compound, the “Bacterial Biotransformation” value [4] was “Compound NOT metabolized”, the “Bacterial Biotransformation” value [5] was “Compound NOT metabolized” and the “Bacterial Biotransformation” value [6] was “Compound NOT metabolized”. For the same compound, the “Bacterial Biotransformation” value [7] was “Compound NOT metabolized”, the “Bacterial Biotransformation” value [8] was “Compound NOT metabolized” and the “Bacterial Biotransformation” value [9] was “Compound NOT metabolized”.
With `Clc1ccc(Cn2c(CN3CCCC3)nc3ccccc32)cc1` [CLEMIZOLE] the “Bacterial Biotransformation” value [1] was “Compound metabolized”, the “Bacterial Biotransformation” value [2] was “Compound metabolized” and the “Bacterial Biotransformation” value [3] was “Compound metabolized”. For the same compound, the “Bacterial Biotransformation” value [4] was “Compound metabolized”, the “Bacterial Biotransformation” value [5] was “Compound NOT metabolized” and the “Bacterial Biotransformation” value [6] was “Compound NOT metabolized”. For the same compound, the “Bacterial Biotransformation” value [7] was “Compound metabolized”, the “Bacterial Biotransformation” value [8] was “Compound NOT metabolized” and the “Bacterial Biotransformation” value [9] was “Compound NOT metabolized”.
With `CC[C@H](C)C(=O)O[C@H]1C[C@@H](C)C=C2C=C[C@H](C)[C@H](CC[C@@H]3C[C@@H](O)CC(=O)O3)[C@H]21` [LOVASTATIN] the “Bacterial Biotransformation” value [1] was “Compound NOT metabolized”, the “Bacterial Biotransformation” value [2] was “Compound NOT metabolized” and the “Bacterial Biotransformation” value [3] was “Compound metabolized”. The “Bacterial Biotransformation” value [4] was “Compound NOT metabolized”, the “Bacterial Biotransformation” value [5] was “Compound NOT metabolized” and the “Bacterial Biotransformation” value [7] was “Compound metabolized”. The “Bacterial Biotransformation” value [8] was “Compound NOT metabolized” and the “Bacterial Biotransformation” value [9] was “Compound NOT metabolized”.
With `COc1ccc2[nH]c([S+]([O-])Cc3ncc(C)c(OC)c3C)nc2n1` (centres undefined) [TENATOPRAZOLE] the “Bacterial Biotransformation” value [1] was “Compound metabolized”, the “Bacterial Biotransformation” value [3] was “Compound NOT metabolized” and the “Bacterial Biotransformation” value [4] was “Compound NOT metabolized”. The “Bacterial Biotransformation” value [5] was “Compound NOT metabolized”, the “Bacterial Biotransformation” value [6] was “Compound metabolized” and the “Bacterial Biotransformation” value [7] was “Compound metabolized”. For the same compound, the “Bacterial Biotransformation” value [8] was “Compound metabolized” and the “Bacterial Biotransformation” value [9] was “Compound metabolized”.
